Laboratory results: patent publication US20120083522A1, “MODULATION OF INFLAMMATORY RESPONSES BY FACTOR XI” (Isis Pharmaceuitcals, inc., priority 2009, published 2012)
In the oligonucleotide strings, read from the 5' end, every base follows the letter of its sugar. An asterisk marks phosphorothioate; unmarked linkages are phosphodiester. Other units and linkages are bracketed, terminal groups are in braces. A string of capitals states the bases alone. e = 2'-O-(2-methoxyethyl) (MOE); [5mC] = 5-methylcytosine; d = 2'-deoxy (DNA)

Key:
Type in all cases: cell-based
human Factor XI mRNA [1] = test: Dose-dependent antisense inhibition in HepG2 cells, lipofectin (Example 2); settings: approximately 16 hours
Experimental: Cells were plated at a density of 10,000 cells per well and transfected using lipofectin reagent with 9.375 nM, 18.75 nM, 37.5 nM, 75 nM, and 150 nM concentrations of antisense oligonucleotide, as specified in Table 3. After a treatment period of approximately 16 hours, RNA was isolated from the cells and Factor XI mRNA levels were measured by quantitative real-time PCR. Human Factor XI primer probe set RTS 2966 (forward sequence: […], incorporated herein as SEQ ID NO: 3; reverse sequence: […], incorporated herein as SEQ ID NO: 4; probe sequence: TTGTCTACTGAAGCACACCCAAACAGGGAX, wherein X is the fluorophore, incorporated herein as SEQ ID NO: 5) was used to measure mRNA levels. Factor XI mRNA levels were adjusted according to total RNA content, as measured by RIBOGREEN®. Results are presented as percent inhibition of Factor XI, relative to untreated control cells.

human Factor XI mRNA [2] = test: Dose-dependent inhibition in HepG2 cells, lipofectin (Example 4); settings: 16 hours
How it was run: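 HepG2 cells at 10,000 per well were lipofectin-transfected with 9.375, 18.75, 37.5 or 75 nM antisense oligonucleotide for about 16 h. Factor XI mRNA was quantified by real-time PCR (primer probe set RTS 2966) and normalised to RIBOGREEN total RNA. Values are percent inhibition versus untreated cells.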

human Factor XI mRNA [3] = test: Dose-dependent inhibition in HepG2 cells, electroporation (Example 4); settings: 16 hours
How it was run: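 HepG2 cells electroporated with 0.7, 2.2, 6.7 or 20 μM antisense gapmer and harvested after ~16 h. Factor XI mRNA quantified by qRT-PCR (primer probe set RTS 2966), normalised to total RNA (RIBOGREEN). Reported as percent inhibition versus untreated control cells.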

human Factor XI mRNA [4] = test: Antisense inhibition in HepG2 cells by microwalk gapmers, 75 nM, lipofectin (Example 3); settings: HepG2 cells, 75 nM, oligonucleotides targeted to nucleobases 1018 to 1042 of SEQ ID NO: 1
How it was run: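 HepG2 cells (10,000 per well) were transfected with 75 nM gapmer using lipofectin and treated for about 24 h. Factor XI mRNA was quantified by real-time PCR, normalized to RiboGreen total RNA and expressed as percent inhibition versus untreated controls.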

Substance | percent inhibition of Factor XI (human Factor XI mRNA [1]; 9.375 nM) [%] | percent inhibition of Factor XI (human Factor XI mRNA [1]; 18.75 nM) [%] | percent inhibition of Factor XI (human Factor XI mRNA [1]; 37.5 nM) [%] | percent inhibition of Factor XI (human Factor XI mRNA [1]; 75 nM) [%] | percent inhibition of Factor XI (human Factor XI mRNA [1]; 150 nM) [%] | percent inhibition of Factor XI mRNA, relative to untreated control cells (human Factor XI mRNA [2]; 9.375 nM) [%] | percent inhibition of Factor XI mRNA, relative to untreated control cells (human Factor XI mRNA [2]; 18.75 nM) [%] | percent inhibition of Factor XI mRNA, relative to untreated control cells (human Factor XI mRNA [2]; 37.5 nM) [%] | percent inhibition of Factor XI mRNA, relative to untreated control cells (human Factor XI mRNA [2]; 75 nM) [%] | percent inhibition of Factor XI mRNA, relative to untreated control cells (human Factor XI mRNA [3]; 0.7 μM) [%] | percent inhibition of Factor XI mRNA, relative to untreated control cells (human Factor XI mRNA [3]; 2.2 μM) [%] | percent inhibition of Factor XI mRNA, relative to untreated control cells (human Factor XI mRNA [3]; 6.7 μM) [%] | percent inhibition of Factor XI mRNA, relative to untreated control cells (human Factor XI mRNA [3]; 20 μM) [%] | % inhibition of human Factor XI mRNA levels (human Factor XI mRNA [4]) [%]
412203 (antisense eA*eA*eT*eG*eT*d[5mC]*dT*dT*dT*dG*dT*dT*dG*d[5mC]*dA*eA*eG*e[5mC]*eG*e[5mC]) [compound 412203] | 29 | 15 | 61 | 77 | 82 | 33 | 40 | 62 | 74 | 11 | 60 | 70 | 91 | –
412212 (antisense e[5mC]*e[5mC]*eG*eG*eG*dA*dT*dG*dA*dT*dG*dA*dG*dT*dG*e[5mC]*eA*eG*eA*eT) [compound 412212] | 28 | 45 | 59 | 73 | 88 | – | – | – | – | – | – | – | – | 89
413467 (antisense eG*eG*eT*e[5mC]*e[5mC]*dA*d[5mC]*dA*dT*dA*dA*dA*dT*dG*dT*e[5mC]*eT*eT*eT*eG) [compound 413467] | 2 | 35 | 49 | 61 | 47 | 35 | 51 | 62 | 69 | 5 | 31 | 65 | 89 | –
413468 (antisense eG*eT*e[5mC]*eT*eA*dG*dG*dT*d[5mC]*d[5mC]*dA*d[5mC]*dA*dT*dA*eA*eA*eT*eG*eT) [compound 413468] | 14 | 34 | 56 | 78 | 75 | – | – | – | – | – | – | – | – | –
413469 (antisense eT*eG*e[5mC]*e[5mC]*e[5mC]*dT*dT*d[5mC]*dA*dT*dG*dT*d[5mC]*dT*dA*eG*eG*eT*e[5mC]*e[5mC]) [compound 413469] | 24 | 33 | 53 | 70 | 84 | – | – | – | – | – | – | – | – | –
